Measurements taken from patent US8067458B2, “Alkoxyalkyl-substituted cyclic ketoenols” (Bayer Cropscience AG, priority 2006, dated 2011).
Values joined by “and” are separate entries in the source; they are usually repeats but may differ in a detail not shown here. Equal entries are not always repeated. Where two headings read alike, the source gives them in different places.

Columns and labels:
Spring wheat = type: in vivo; settings: post-emergence
Spring barley = type: in vivo; settings: post-emergence
[1] = Determination of the log P values by HPLC on a reversed phase column (C18); type: physicochemical; settings: 43° C., EEC Directive 79/831 Annex V.A8
Experimental: The log P values reported in the table were determined in accordance with EEC Directive 79/831 Annex V.A8 by means of HPLC (high performance liquid chromatography) on a reversed phase column (C18). Temperature: 43° C. […] Calibration was carried out with unbranched alkan-2-ones (having 3 to 16 carbon atoms) whose log P values are known (log P values determined on the basis of the retention times by means of linear interpolation between two successive alkanones).

Maize - CECILIA = assay: Greenhouse container trials with maize, safener 1 day prior to herbicide application, pre-emergence; type: in vivo; settings: 50 g a.i./ha, 28 days after application
Experimental: (§1) Seeds of monocotyledonous and dicotyledonous weed plants and crop plants are placed in sandy loam soil in wood fibre pots or in plastic pots and are covered with earth. The pots are easily fitted and then the soil surface is treated with the test compounds, formulated as wettable powders (WP) or liquids (EC) in various dosages, with a water application rate of 300 l/ha (converted). […] If the testing is also to look at whether safeners can improve the tolerance of the crop plants for test substances, the following options are used for the application of the safener: • seeds of the crop plants are dressed with the safener substance prior to sowing (the amount of safener is stated as a percentage, based on the seed weight) • crop plants are sprayed with the safener, with a defined application rate per hectare, prior to application of the test substances (typically 1 day before the test substances are applied) • the safener is applied together with the test substance in the form of a tank mix (the amount of safener is reported in g/ha or as a proportion relative to the herbicide). By comparing the effect of test substances on crop plants which have been treated with safener and without safener it is possible to assess the effect of the safener substance.

Maize - Arsenal = assay: as above; type: in vivo; settings: 28 days after application
Experimental: as §1

[2] = Penetration of active compounds through enzymatically isolated cuticles of apple leaves; settings: spray liquor on isolated cuticles; 20° C., 60% rh; average of 5 to 6 measurements
[3] = system: caterpillars of the army worm (Spodoptera frugiperda); assay: Spodoptera frugiperda test (spray treatment); type: in vivo; settings: 500 g/ha, maize leaf discs
Experimental: Solvent: 78 parts by weight of acetone • • 1.5 parts by weight of dimethylformamide Emulsifier: 0.5 part by weight of alkylaryl polyglycol ether A suitable preparation of active compound is prepared by mixing 1 part by weight of active compound with the stated amounts of solvent and emulsifier and diluting the concentrate with emulsifier-containing water to the desired concentration. Leaf discs of maize (Zea mays) are sprayed with a preparation of active compound at the desired concentration and after they have dried are populated with caterpillars of the army worm (Spodoptera frugiperda).

[4] = 28 days after application, 50 g a.i./ha
[5] = 28 days after application, 100 g a.i./ha
[6] = 25 g a.i./ha, 10 days after application
[7] = 50 g a.i./ha, 10 days after application
[8] = 10 days after application, 25 g a.i./ha
[9] = 10 days after application, 50 g a.i./ha
[10] = 10 days after application, 100 g a.i./ha
[11] = 28 days after application, 25 g a.i./ha
[12] = 10 days after application, 12.5 g a.i./ha

Compound: CCc1cc(C)cc(Br)c1C1=C(O)C(C)(COC)NC1=O (racemic) [I-a-6]
- Spring wheat observed (%) (Spring wheat; [4]): 20%
- Spring wheat observed (%) (Spring wheat; [5]): 30%

Compound: CCc1cc(C)cc(C)c1C1=C(OC(=O)C(C)C)C(C)(COC)NC1=O (racemic) [I-b-4]
- Spring wheat observed (%) (Spring wheat; 12.5 g a.i./ha, 10 days after application): 30%
- Spring wheat observed (%) (Spring wheat; [6]): 50%
- Spring wheat observed (%) (Spring wheat; [7]): 70%
- Spring wheat observed (%) (Spring wheat; [8]): 10%
- Spring wheat observed (%) (Spring wheat; [9]): 50%
- Spring wheat observed (%) (Spring wheat; [10]): 75%
- Spring wheat observed (%) (Spring wheat; [11]): 10%
- Spring wheat observed (%) (Spring wheat; 28 days after application, 50 g a.i./ha, listed as Ex. I-b-4): 15% and 5%
- Spring wheat observed (%) (Spring wheat; [5]): 30%
- Spring barley observed (%) (Spring barley; [6]): 30%
- Spring barley observed (%) (Spring barley; [7]): 40%
- Spring barley observed (%) (Spring barley; [9]): 25%
- Spring barley observed (%) (Spring barley; [10]): 65%

Compound: CCc1cc(C)cc(OC)c1C1=C(OC(=O)C(C)C)C(C)(COC)NC1=O (racemic) [I-b-9]
- Spring wheat observed (%) (Spring wheat; [12]): 15%
- Spring wheat observed (%) (Spring wheat; [8]): 60%
- Spring wheat observed (%) (Spring wheat; [11]): 60%
- Spring wheat observed (%) (Spring wheat; [4]): 85%
- Spring barley observed (%) (Spring barley; [8]): 25%
- Spring barley observed (%) (Spring barley; [9]): 75%
- Spring barley observed (%) (Spring barley; [11]): 25%
- Spring barley observed (%) (Spring barley; [4]): 70%

Compound: CCc1cc(C)cc(C)c1C1=C(OC(=O)COC)C(C)(COC)NC1=O (racemic) [I-b-11]
- Spring wheat observed (%) (Spring wheat; [8]): 10%
- Spring wheat observed (%) (Spring wheat; [9]): 60%
- Spring wheat observed (%) (Spring wheat; [11]): 10%
- Spring wheat observed (%) (Spring wheat; [4]): 50%
- Spring barley observed (%) (Spring barley; [12]): 10%
- Spring barley observed (%) (Spring barley; [8]): 15%
- Spring barley observed (%) (Spring barley; [9]): 50%
- Spring barley observed (%) (Spring barley; [10]): 70%
- Spring barley observed (%) (Spring barley; [4]): 25%
- Spring barley observed (%) (Spring barley; [5]): 55%

Compound: CCOc1cc(Cl)cc(CC)c1CC(=O)NC(C)(CCOC)C(=O)OC (stereo not shown) [II-34]
- logP [1]: logP 3.64

Compound: CCc1cc(Cl)cc(OC)c1C1=C(OC(=O)C(C)C)C(C)(COC)NC1=O (racemic) [I-b-10]
- Maize - CECILIA observed (%) (Maize - CECILIA): 15%
- Maize - Arsenal observed (%) (Maize - Arsenal; 12.5 g a.i./ha): 5%
- Maize - Arsenal observed (%) (Maize - Arsenal; 25 g a.i./ha): 15%
- Maize - Arsenal observed (%) (Maize - Arsenal; 50 g a.i./ha): 25%

Compound: CCc1cc(C)cc(Br)c1CC(=O)NC(C)(CCOC)C(=O)OC (stereo not shown) [II-35]
- logP [1]: logP 3.39

Compound: N.N.O=S(=O)(O)O [ammonium sulphate]
- penetration through apple leaf cuticles (effect of additive, in words) [2]: significantly improves the penetration

Compound: CCc1cc(C)cc(C2CC2)c1CC(=O)NC(C)(COC)C(=O)OC (racemic) [II-20]
- logP [1]: oil logP 3.13

Compound: CCc1cc(Cl)cc(OC)c1C1=C(O)C(C)(COC)NC1=O (racemic) [I-a-10]
- Spring wheat observed (%) (Spring wheat; 28 days after application, 12.5 g a.i./ha): 5%
- Spring wheat observed (%) (Spring wheat; [11]): 15%
- Spring wheat observed (%) (Spring wheat; [4]): 25%

Compound: COCCC(C)(NC(=O)Cc1c(C)cc(C)cc1C)C(=O)OC (stereo not shown) [II-29]
- logP [1]: logP 2.86

Compound: COCC(C)(NC(=O)Cc1c(C2CC2)cc(C)cc1C1CC1)C(=O)OC (stereo not shown) [II-27]
- logP [1]: logP 3.19

Compound: COCC1(C)NC(=O)C(c2c(C)cc(C)cc2Cl)=C1O (racemic) [I-a-12]
- activity (effect in %, caterpillars killed) [3]: ≥ 80%

Compound: CCc1cc(C)cc(C)c1CC(=O)NC(C)(CCOC)C(=O)OC (stereo not shown) [II-28]
- logP [1]: logP 3.19

Compound: CCc1cc(Cl)cc(OC)c1CC(=O)NC(C)(CCOC)C(=O)OC (stereo not shown) [II-33]
- logP [1]: logP 3.21
